Several values for one entry are separate records, joined by “and”; a condition that tells them apart may be missing. Equal values may be shown once.
Columns and labels:
[1] = Half-life of BPP followed spectroscopically at 265 nm; assay type: physicochemical; conditions: phosphate buffer (enzyme-free ultrafiltrate of the reaction), pH 6, 0.1 M phosphate, first-order decay, after removal of D1*D2D3 by ultrafiltration, read-out: half-life (t1/2)
Method: The synthesis and t1/2 of BPP was determined spectroscopically at 265 nm. The synthesis of BPP with D1*D2D3 sonicate and 10 mM glucosone in a 500 μL reaction was followed until the absorbance reached ˜1.4 (about 14 minutes). The reaction was then passed through a 3,000 MWCO Nanosep centrifugal filter (PALL Life Sciences) by centrifuging for 4 minutes at 14,000×g and 200 μL of filtrate followed at A265 every 4 s. The decay of A265 was normalized to the highest and lowest measured values, with the highest A265 set to 1 and the lowest to 0. To determine whether the t1/2 was 0th, 1st or 2nd order, the natural log of the data was plotted against time. After determining that the decay followed 1st-order decay, t1/2 was calculated using the Solver add-in for Microsoft Excel, minimizing the sum of squared differences between the measured and modeled data calculated using Equation 1.

[2] = Partition coefficient of HBL extraction from aqueous solution into organic solvent (GC/FID); assay type: physicochemical
Excerpt: One potential application of HBL, which may have high value, is as a pharmaceutical precursor, which depends on its enantiomeric purity. To identify the chirality of the HBL produced by the above process, gas chromatography (GC) with flame ionization detection (FID) was applied using a MilliporeSigma® Supelco® ß-Dex 255 capillary GC column containing a chiral stationary phase of 2,3-diO-acetyl-6-0-TBDMS-ß-cyclodextrin. (MilliporeSigma and Supelco are registered trademarks of Merck KGaA of Darmstadt, Germany) This column successfully separated the enantiomers of HBL, although the retention times depended on the solvent in which the HBL was dissolved. Based on the reaction network from glucose to HBL, the chirality should be preserved at the C-5 position (FIG. 1). The reaction product solution was extracted with ethyl acetate, and the organic phase analyzed by GC/FID. […] The partition coefficient of HBL extraction into ethyl acetate was 0.1±0.02, and quantification of the HBL in the ethyl acetate coupled with this partition coefficient leads to an overall yield of HBL from glucose of 90%, which is limited by equilibrium, vide supra. HBL can also be extracted into THE, with a partition coefficient of 1.3±0.5, and propylene carbonate, with a partition coefficient of 0.5±0.1.

Work on O=C1C(O)=C[C@@H](CO)OC1O (stereo partly shown) [BPP] yielded a half-life [1] of 3.7 min.

For O=C1C[C@H](O)CO1 [HBL, (S)-3-hydroxy-γ-butyrolactone], the “partition coefficient of HBL extraction into THF” value ([2]; THF (printed THE) / aqueous solution) was 1.3 and 1.3±0.5, the “partition coefficient of HBL extraction into ethyl acetate” value ([2]; ethyl acetate / aqueous reaction product solution) was 0.1 and 0.1±0.02 and the “partition coefficient of HBL extraction into propylene carbonate” value ([2]; propylene carbonate / aqueous solution) was 0.5±0.1.
